Laboratory results taken from ChEMBL document CHEMBL3045767, “Synthesis of novel 2-[4-(4-substitutedbenzamido/phenylacetamido)phenyl]benzothiazoles as antimicrobial agents” (2012).
Values after ≈ are worked out from the molar mass of the structure shown.

Tests used:
Type in all cases: functional
[1] = test system: Candida albicans; experiment: Antifungal activity against Candida albicans ATCC 10231 after 48 hr by CLSI broth microdilution method; conditions: ATCC 10231, 48 h
[2] = test system: Escherichia coli; experiment: Antibacterial activity against Escherichia coli ATCC 25922 after 24 hr by CLSI broth microdilution method
[3] = test system: Staphylococcus aureus; experiment: Antibacterial activity against Staphylococcus aureus ATCC 25923 after 24 hr by CLSI broth microdilution method
[4] = test system: Escherichia coli; experiment: Antibacterial activity against Escherichia coli producing extended spectrum beta lactamase enzyme after 24 hr by CLSI broth microdilution method
[5] = test system: Klebsiella pneumoniae; experiment: Antibacterial activity against Klebsiella pneumoniae producing extended spectrum beta lactamase enzyme after 24 hr by CLSI broth microdilution method
[6] = test system: Staphylococcus aureus; experiment: Antibacterial activity against methicillin-resistant Staphylococcus aureus after 24 hr by CLSI broth microdilution method
[7] = test system: Bacillus subtilis; experiment: Antibacterial activity against Bacillus subtilis ATCC 6633 after 24 hr by CLSI broth microdilution method
[8] = test system: Bacillus subtilis; experiment: Antibacterial activity against ceftriaxon-resistant Bacillus subtilis after 24 hr by CLSI broth microdilution method
[9] = test system: Klebsiella pneumoniae; experiment: Antibacterial activity against Klebsiella pneumoniae RSKK 574 after 24 hr by CLSI broth microdilution method
[10] = test system: Pseudomonas aeruginosa; experiment: Antibacterial activity against Pseudomonas aeruginosa ATCC […] after 24 hr by CLSI broth microdilution method
[11] = test system: Pseudomonas aeruginosa; experiment: Antibacterial activity against gentamicin-resistant Pseudomonas aeruginosa after 24 hr by CLSI broth microdilution method
[12] = test system: Pseudomonas aeruginosa; experiment: Ratio of gentamycin sulfate MIC to compound MIC for gentamicin-resistant Pseudomonas aeruginosa
[13] = test system: Pseudomonas aeruginosa; experiment: Ratio of ofloxacin MIC to compound MIC for gentamicin-resistant Pseudomonas aeruginosa
[14] = test system: Candida albicans; experiment: Antifungal activity against Candida albicans
[15] = test system: Staphylococcus aureus; experiment: Antibacterial activity against Staphylococcus aureus

| Compound | MIC [1] [µg/mL] | MIC ([2]; ATCC 25922, 24 h) [µg/mL] | MIC ([3]; ATCC 25923, 24 h) [µg/mL] | MIC [4] [µg/mL] | MIC [5] [µg/mL] | MIC [6] [µg/mL] | MIC ([7]; ATCC 6633, 24 h) [µg/mL] | MIC [8] [µg/mL] | MIC ([9]; RSKK 574, 24 h) [µg/mL] | MIC ([10]; ATCC 25853, 24 h) [µg/mL] | MIC [11] [µg/mL] | MIC [2] [µg/mL] | MIC [3] [µg/mL] | MIC [7] [µg/mL] | MIC [9] [µg/mL] | MIC [10] [µg/mL] | Ratio [12] | Ratio [13] | MIC [14] [µg/mL] | MIC [15] [µg/mL] |
| --- | --- | --- | --- | --- | --- | --- | --- | --- | --- | --- | --- | --- | --- | --- | --- | --- | --- | --- | --- | --- |
| O=C(Nc1ccc(-c2nc3ccccc3s2)cc1)c1ccc(Cl)cc1 | 25 (≈ 68.5 µM) | 50 (≈ 137 µM) | 50 (≈ 137 µM) | 50 (≈ 137 µM) | 25 (≈ 68.5 µM) | 12.5 (≈ 34.3 µM) | 50 (≈ 137 µM) | 50 (≈ 137 µM) | 50 (≈ 137 µM) | 25 (≈ 68.5 µM) | 25 (≈ 68.5 µM) |  |  |  |  |  |  |  |  |  |
| O=C(Cc1ccc(F)cc1)Nc1ccc(-c2nc3ccccc3s2)cc1 | 25 (≈ 69 µM) | 25 (≈ 69 µM) | 100 (≈ 276 µM) | 50 (≈ 138 µM) | 50 (≈ 138 µM) | 50 (≈ 138 µM) | 50 (≈ 138 µM) | 25 (≈ 69 µM) | 50 (≈ 138 µM) | 25 (≈ 69 µM) | 25 (≈ 69 µM) |  |  |  |  |  |  |  |  |  |
| GENTAMICIN SULFATE |  |  |  | 12.5 | 6.25 | 6.25 |  | 0.19 |  |  | 50 | 0.78 | 0.78 | 0.39 | 0.39 | 1.56 |  |  |  |  |
| COc1ccc(CC(=O)Nc2ccc(-c3nc4ccccc4s3)cc2)cc1 | 12.5 (≈ 33.4 µM) | 12.5 (≈ 33.4 µM) | 50 (≈ 134 µM) | 25 (≈ 66.8 µM) | 50 (≈ 134 µM) | 12.5 (≈ 33.4 µM) | 12.5 (≈ 33.4 µM) | 50 (≈ 134 µM) | 12.5 (≈ 33.4 µM) | 25 (≈ 66.8 µM) | 6.25 (≈ 16.7 µM) |  |  |  |  |  | 3 | 3 |  |  |
| CC1(C)S[C@@H]2[C@H](NC(=O)[C@H](N)c3ccccc3)C(=O)N2[C@H]1C(=O)O.O.O.O [AMPICILLIN TRIHYDRATE] |  | 3.12 | 0.78 | 400 |  |  | 0.78 | 0.78 |  |  |  |  |  |  |  |  |  |  |  |  |
| O=C(Nc1ccc(-c2nc3ccccc3s2)cc1)c1ccc([N+](=O)[O-])cc1 | 12.5 (≈ 33.3 µM) | 25 (≈ 66.6 µM) | 50 (≈ 133 µM) | 50 (≈ 133 µM) | 50 (≈ 133 µM) | 12.5 (≈ 33.3 µM) | 50 (≈ 133 µM) | 50 (≈ 133 µM) | 50 (≈ 133 µM) | 25 (≈ 66.6 µM) | 25 (≈ 66.6 µM) |  |  |  |  |  |  |  |  |  |
| CCc1ccc(C(=O)Nc2ccc(-c3nc4ccccc4s3)cc2)cc1 | 12.5 (≈ 34.9 µM) | 25 (≈ 69.7 µM) | 50 (≈ 139 µM) | 50 (≈ 139 µM) | 50 (≈ 139 µM) | 6.25 (≈ 17.4 µM) | 50 (≈ 139 µM) | 50 (≈ 139 µM) | 25 (≈ 69.7 µM) | 25 (≈ 69.7 µM) | 25 (≈ 69.7 µM) |  |  |  |  |  |  |  |  |  |
| CC(C)(C)c1ccc(C(=O)Nc2ccc(-c3nc4ccccc4s3)cc2)cc1 | 12.5 (≈ 32.3 µM) | 25 (≈ 64.7 µM) | 50 (≈ 129 µM) | 50 (≈ 129 µM) | 50 (≈ 129 µM) | 12.5 (≈ 32.3 µM) | 50 (≈ 129 µM) | 100 (≈ 259 µM) | 25 (≈ 64.7 µM) | 25 (≈ 64.7 µM) | 25 (≈ 64.7 µM) |  |  |  |  |  |  |  |  |  |
| O=C(Nc1ccc(-c2nc3ccccc3s2)cc1)c1ccc(F)cc1 | 25 (≈ 71.8 µM) | 50 (≈ 144 µM) | 50 (≈ 144 µM) | 50 (≈ 144 µM) | 50 (≈ 144 µM) | 25 (≈ 71.8 µM) | 50 (≈ 144 µM) | 50 (≈ 144 µM) | 25 (≈ 71.8 µM) | 25 (≈ 71.8 µM) | 25 (≈ 71.8 µM) |  |  |  |  |  |  |  |  |  |
| C[C@@H]1[C@H](O)[C@@H](C)/C=C/C=C/C=C/C=C/C=C/C=C/C=C/[C@H](O[C@@H]2O[C@H](C)[C@@H](O)[C@H](N)[C@@H]2O)C[C@@H]2O[C@](O)(C[C@@H](O)C[C@@H](O)[C@H](O)CC[C@@H](O)C[C@@H](O)CC(=O)O[C@H]1C)C[C@H](O)[C@H]2C(=O)O [AMPHOTERICIN B] | 0.78 (≈ 0.844 µM) |  |  |  |  |  |  |  |  |  |  |  |  |  |  |  |  |  |  |  |
| O=C(Cc1ccc(Cl)cc1)Nc1ccc(-c2nc3ccccc3s2)cc1 | 25 (≈ 66 µM) | 50 (≈ 132 µM) | 50 (≈ 132 µM) | 50 (≈ 132 µM) | 50 (≈ 132 µM) | 50 (≈ 132 µM) | 50 (≈ 132 µM) | 50 (≈ 132 µM) | 50 (≈ 132 µM) | 25 (≈ 66 µM) | 25 (≈ 66 µM) |  |  |  |  |  |  |  |  |  |
| c1ccc(OCc2nc3ccccc3s2)cc1 [2-(PHENOXYMETHYL)BENZOTHIAZOLE] |  |  |  |  |  |  |  |  |  |  |  |  |  |  |  |  |  |  | 3.12 (≈ 12.9 µM) | 3.12 (≈ 12.9 µM) |
| Cc1ccc(CC(=O)Nc2ccc(-c3nc4ccccc4s3)cc2)cc1 | 25 (≈ 69.7 µM) | 50 (≈ 139 µM) | 50 (≈ 139 µM) | 50 (≈ 139 µM) | 50 (≈ 139 µM) | 25 (≈ 69.7 µM) | 50 (≈ 139 µM) | 50 (≈ 139 µM) | 25 (≈ 69.7 µM) | 25 (≈ 69.7 µM) | 25 (≈ 69.7 µM) |  |  |  |  |  |  |  |  |  |
| c1ccc(SCc2nc3ccccc3s2)cc1 [2-(PHENYLTHIOMETHYL)BENZO[D]THIAZOLE] |  |  |  |  |  |  |  |  |  |  |  |  |  |  |  |  |  |  | 3.12 (≈ 12.1 µM) |  |
| c1ccc2sc(CCC3CCCCC3)nc2c1 |  |  |  |  |  |  |  |  |  |  |  |  |  |  |  |  |  |  | 3.12 (≈ 12.7 µM) |  |
| O=C(Nc1ccc(-c2nc3ccccc3s2)cc1)c1ccc(Br)cc1 | 25 (≈ 61.1 µM) | 50 (≈ 122 µM) | 50 (≈ 122 µM) | 50 (≈ 122 µM) | 50 (≈ 122 µM) | 25 (≈ 61.1 µM) | 50 (≈ 122 µM) | 100 (≈ 244 µM) | 50 (≈ 122 µM) | 25 (≈ 61.1 µM) | 25 (≈ 61.1 µM) |  |  |  |  |  |  |  |  |  |
| O=C(Cc1ccc(Br)cc1)Nc1ccc(-c2nc3ccccc3s2)cc1 | 12.5 (≈ 29.5 µM) | 25 (≈ 59.1 µM) | 50 (≈ 118 µM) | 50 (≈ 118 µM) | 50 (≈ 118 µM) | 25 (≈ 59.1 µM) | 50 (≈ 118 µM) | 50 (≈ 118 µM) | 50 (≈ 118 µM) | 12.5 (≈ 29.5 µM) | 25 (≈ 59.1 µM) |  |  |  |  |  |  |  |  |  |
| c1ccc(CCc2nc3ccccc3s2)cc1 [2-PHENETHYLBENZO[D]THIAZOLE] |  |  |  |  |  |  |  |  |  |  |  |  |  |  |  |  |  |  | 3.12 (≈ 13 µM) |  |
| OC(Cn1cncn1)(Cn1cncn1)c1ccc(F)cc1F [FLUCONAZOLE] | 0.78 (≈ 2.55 µM) |  |  |  |  |  |  |  |  |  |  |  |  |  |  |  |  |  |  |  |
| CC1COc2c(N3CCN(C)CC3)c(F)cc3c(=O)c(C(=O)O)cn1c23 (stereo not given) [OFLOXACIN] |  | 0.19 (≈ 0.526 µM) | 0.19 (≈ 0.526 µM) | 6.25 (≈ 17.3 µM) | 3.12 (≈ 8.65 µM) | 1.56 (≈ 4.32 µM) | 0.19 (≈ 0.526 µM) | 3.12 (≈ 8.65 µM) | 0.19 (≈ 0.526 µM) | 6.25 (≈ 17.3 µM) | 50 (≈ 138 µM) |  |  |  |  |  |  |  |  |  |
| CO[C@H]1/C=C/O[C@@]2(C)Oc3c(C)c(O)c4c(O)c(c(/C=N/N5CCN(C)CC5)c(O)c4c3C2=O)NC(=O)/C(C)=C\C=C\[C@H](C)[C@H](O)[C@@H](C)[C@@H](O)[C@@H](C)[C@H](OC(C)=O)[C@@H]1C [RIFAMPIN] |  |  | 0.0225 (≈ 0.0273 µM) |  |  | 1.56 (≈ 1.9 µM) | 0.19 (≈ 0.231 µM) | 3.12 (≈ 3.8 µM) |  |  |  |  |  |  |  |  |  |  |  |  |
| Clc1ccc(OCc2nc3ccccc3s2)cc1 |  |  |  |  |  |  |  |  |  |  |  |  |  |  |  |  |  |  | 3.12 (≈ 11.3 µM) |  |
